# Assays:
# [1] = system: HCC-1806 (BL2); assay: MTT cell growth assay, 7 days; assay type: cell-based; details: Homo sapiens, HCC1806, 168 h
# Experimental: (§1) Figure 3 In vitro characterization, pharmacokinetics and toxicity profile of VNLG-152R and its two enantiomers. (A) HPLC chromatograms racemic VNLG-152R (left panel) and the resolved enantiomers VNLG-152E1 and VNLG-152E2 (right panel). The conditions of HPLC procedure are presented in Supplementary Materials. (B) Table summarizing GI50 values (µM) each cell line treated with VNLG-152R and its enantiomers. TNBC cell subtypes were treated with listed compound (0.1 nmol/L–100 µmol/L) for 7 days and the GI50 values for the anti-proliferative effects of the compounds were determined from dose response curves (by a nonlinear regression analysis using Graph Pad Prism). Data represents the results from six independent experiments for each cell line. (C) Plasma concentration versus time profile after intravenous (IV, 2 mg/kg each, top panel) or oral (PO, 20 mg/kg each, bottom panel) of VNLG-152R (red), VNLG-152E1 (purple) and VNLG-152E2 (blue) to female CD1 mice. Values represent the mean plasma concentrations from three mice per time point. (D) Table of the pharmacokinetic parameters of various compounds after IV and PO dosing. AUC = area under the curve, T1/2 = elimination half-life, Cmax = maximum plasma concentration, F (%) = oral bioavailability. (E) Effects of VNLG-152R, VNLG-152E1 and VNLG-152E2 on body weight and clinical observations at chronic dose termination of study. Three different doses, i.e., 10, 25, and 50 mg/kg/day (formulated in 40% β-cyclodextrin in saline) of each compound were administered daily by oral gavage for 14 days. Each group consisted of three mice. Loss in body weight, a clinical sign of toxicity was observed during the 14 days of dosing and the maximum tolerated dose (MTD) was estimated following established procedures. Changes in body weight were scored on a scale of 0–4 as follows as described under methods. […]
# [2] = system: MDA-MB-231 (MSL); assay: MTT cell growth assay, 7 days; assay type: cell-based; details: Homo sapiens, MDA-MB-231, 168 h
# Experimental: as §1
# [3] = system: MDA-MB-436 (MSL); assay: MTT cell growth assay, 7 days; assay type: cell-based; details: Homo sapiens, MDA-MB-436, 168 h
# Experimental: as §1
# [4] = system: MDA-MB-453 (LAR); assay: MTT cell growth assay, 7 days; assay type: cell-based; details: Homo sapiens, MDA-MB-453, 168 h
# Experimental: as §1
# [5] = system: MDA-MB-468 (BL1); assay: MTT cell growth assay, 7 days; assay type: cell-based; details: Homo sapiens, MDA-MB-468, 168 h
# Experimental: as §1
# [6] = system: MFM-223 (LAR); assay: MTT cell growth assay, 7 days; assay type: cell-based; details: Homo sapiens, MFM-223, 168 h
# Experimental: as §1
# [7] = 14-day oral toxicity / MTD study; parameters: species or system female athymic nude mice; details: female, athymic nude, mouse, in vivo; oral, 14 days, estimated; read-out: maximum tolerated dose (MTD)
# Experimental: Three different doses, i.e., 10, 25, and 50 mg/kg/day (formulated in 40% β-cyclodextrin in saline) of each compound were administered daily by oral gavage for 14 days. Each group consisted of 3 mice. Their body weight kinetics (loss in body weight, a clinical sign of toxicity) was observed during the 14 days of dosing following established procedures. Changes in body weight were scored on a scale of 0–4 as follows: (1) Weight loss: (10 g = 4, 7–9 g = 3, 4–6 g = 2, 1–3 g = 1; severe = 3, moderate = 2, slight = 1, none = 0).
# [8] = system: Br-001 xenograft tumors; assay: Patient-derived TNBC xenograft (PDX), PO, racemate vs E1; assay type: in vivo, NSG mice; details: 20 mg/kg PO
# Experimental: The second PDX tumor model experiment was conducted to assess the efficacy of VNLG-152R versus VNLG-152E1 following PO administration. When the tumor volumes had reached about 100 mm^3, the mice were randomly divided into three groups of five mice each. The control group received vehicle (PO) and the other two groups received VNLG-152R (20 mg/kg, PO, once daily), and VNLG-152E1 (20 mg/kg, PO, once daily) five days/week. These treatments continued for 15 days and the tumors were measured and processed as described above.
# [9] = system: MDA-MB-231-Luc cells; assay: Experimental lung metastasis assay; assay type: in vivo, SCID mice; details: 20 mg/kg IP, 2 weeks, IVIS luciferase signal in lung
# Experimental: The MDA-MB-231-luc cells were the kind gift of Dr. Stuart Martin (UMB). Cells were grown in DMEM with 10% FBS, hygromycin and G418 to subconfluence (~50–70%) and then trypsinized, washed, and resuspended in PBS. 1 × 10^6 cells were injected IV in a volume of 100 µL. Mice were treated for 14 days with vehicle or VNLG-152 by IP injection at doses of 20 mg/kg. The luciferase signals in the mice were detected and photographed using an IVIS in vivo image system on days 0, 1 and 14 [81].
compound,measurement,setting,value
"CC1=C(/C=C/C(C)=C/C=C/C(C)=C/C(=O)Nc2ccc(F)cc2)C(C)(C)CCC1n1ccnc1 (racemic) [VNLG-152R, 4-(±)-(1H-imidazol-1-yl)-N-(4-fluorophenyl)-(E)-retinamide]",GI50,[1],810 ± 40 nM
same,GI50,[2],620 ± 30 nM
same,GI50,[3],890 ± 30 nM
same,GI50,[4],740 ± 30 nM
same,GI50,[5],890 ± 60 nM
same,GI50,[6],1860 ± 120 nM
same,MTD at 14 days,[7],> 50 mg/kg
same,changes in body weights,[8],No changes in body weights were observed
same,TGI,"[8]; 5 days per week, 15 days",82%
same,inhibition of metastasis,[9],~ 80%
